Data on 7 molecules can be found in PubChem BioAssay (NCI).

Some test systems named below: MALME-3M melanoma; SK-MEL-5 melanoma; A549 NSCLC; KM12 colon; UACC-257 melanoma; CAKI-1 renal; HOP-62 NSCLC; HL-60(TB) leukemia; NCI-H522 lung; NCI-H23 lung; OVCAR-3 ovarian; SF-268 CNS; M14 melanoma; HOP-92 NSCLC; HCC-2998 colon; TK-10 renal; U251 CNS; CCRF-CEM leukemia; PC-3 prostate.
What all share (test): NCI anticancer screen, dose series, 48 h

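The compound was tested at five concentrations on cells cultured in 96-well plates, with a 48-hour exposure period. TGI: total growth inhibition.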

For the molecule `CC(C)(C)OCC1NC(=O)[C@@H]2Cc3c([nH]c4ccccc34)C(c3ccccc3)N2C1=O` (stereo partly drawn), the TGI in the test on MALME-3M melanoma, in the test on SK-MEL-5 melanoma, in the test with A549 NSCLC, in the test with KM12 colon, in the test with UACC-257 melanoma and with CAKI-1 renal was greater than 50 µM each time. In addition, the TGI with HOP-62 NSCLC, in the test with HL-60(TB) leukemia, with NCI-H522 lung, in the test on NCI-H23 lung, in the test on OVCAR-3 ovarian and in the test on SF-268 CNS was greater than 50 µM throughout. For the same molecule, the TGI in the test with M14 melanoma, in the test with HOP-92 NSCLC, in the test on HCC-2998 colon, with TK-10 renal, in the test with U251 CNS and in the test on CCRF-CEM leukemia was greater than 50 µM in each case. This molecule also registered a TGI in the test on PC-3 prostate greater than 50 µM.
For `CC1(C)CCc2c(c(N=Nc3ccc(S(N)(=O)=O)cc3)c3ccccc3c2O)O1`, the TGI was 15.8 µM with MALME-3M melanoma; 8.1 µM in the test with SK-MEL-5 melanoma; 30.2 µM in the test with A549 NSCLC; 66.4 µM in the test with KM12 colon; 21.3 µM in the test on UACC-257 melanoma; 62.1 µM in the test with CAKI-1 renal. Also, the TGI in the test on HOP-62 NSCLC is 20.7 µM; in the test on HL-60(TB) leukemia, 49.9 µM; in the test on NCI-H522 lung, 33.7 µM; in the test on NCI-H23 lung, 24.5 µM; with OVCAR-3 ovarian, 32.1 µM; in the test on SF-268 CNS, 84.9 µM. Moreover, the TGI with M14 melanoma was determined as 38.2 µM; in the test on HOP-92 NSCLC, 37.5 µM; with HCC-2998 colon, 15.9 µM; in the test with TK-10 renal, 38 µM; in the test with U251 CNS, 20.9 µM; in the test on CCRF-CEM leukemia it was 24.3 µM. Further, the TGI in the test on PC-3 prostate worked out at 36.1 µM.
Regarding `CCOC(=O)CCC(NC(=O)c1ccc(Oc2nc3ccccc3nc2-c2ccccc2)cc1)C(=O)OCC` (stereo not drawn), the TGI was 33 µM in the test with MALME-3M melanoma; greater than 100 µM in the test with SK-MEL-5 melanoma; greater than 100 µM in the test on A549 NSCLC; greater than 100 µM in the test with KM12 colon; greater than 100 µM with UACC-257 melanoma; greater than 66.4 µM in the test on CAKI-1 renal. Besides, the TGI was 45.1 µM in the test on HOP-62 NSCLC; greater than 100 µM with HL-60(TB) leukemia; 40.2 µM in the test on NCI-H522 lung; greater than 61.3 µM in the test on NCI-H23 lung; greater than 64.8 µM in the test with OVCAR-3 ovarian; 28.2 µM in the test on SF-268 CNS. Further, the TGI with M14 melanoma is greater than 100 µM; in the test with HOP-92 NSCLC, 13.4 µM; with HCC-2998 colon, greater than 100 µM; with TK-10 renal, greater than 56.8 µM; in the test with U251 CNS, greater than 94 µM; with CCRF-CEM leukemia, greater than 100 µM. The molecule also had a TGI in the test on PC-3 prostate greater than 100 µM.
In the case of `c1ccc(C2=NCCN2)c(C2=NCCN2)c1`, the TGI in the test with MALME-3M melanoma, in the test with SK-MEL-5 melanoma, in the test with A549 NSCLC, with KM12 colon, in the test with UACC-257 melanoma and in the test with CAKI-1 renal was greater than 100 µM throughout. The TGI in the test with HOP-62 NSCLC, in the test on HL-60(TB) leukemia, with NCI-H522 lung, with NCI-H23 lung, in the test with OVCAR-3 ovarian and in the test with SF-268 CNS was greater than 100 µM throughout. The TGI with M14 melanoma, in the test with HOP-92 NSCLC, in the test with HCC-2998 colon, in the test with TK-10 renal, in the test with U251 CNS and in the test on CCRF-CEM leukemia was greater than 100 µM throughout. The molecule also displayed a TGI with PC-3 prostate greater than 100 µM.
For the molecule `CO[C@@H]1C[C@H]2[C@@H]3CC[C@H]([C@@H](C)CO)[C@@]3(C)CC[C@@H]2[C@@]2(C)CC[C@H]3C[C@]312`, the TGI with MALME-3M melanoma is 41.2 µM; in the test with SK-MEL-5 melanoma, 31.1 µM; in the test on A549 NSCLC, greater than 100 µM; in the test on KM12 colon, 36.6 µM; in the test on UACC-257 melanoma, 71.9 µM; in the test on CAKI-1 renal it was greater than 100 µM. In addition, the TGI in the test with HOP-62 NSCLC was greater than 100 µM; in the test with HL-60(TB) leukemia, 76.3 µM; with NCI-H522 lung, 71.8 µM; with NCI-H23 lung, greater than 100 µM; in the test with OVCAR-3 ovarian, greater than 100 µM; in the test with SF-268 CNS, greater than 100 µM. Also, the TGI was 69.8 µM in the test with M14 melanoma; 58.5 µM in the test with HOP-92 NSCLC; greater than 100 µM in the test with HCC-2998 colon; greater than 100 µM in the test with TK-10 renal; 27.7 µM in the test on U251 CNS; greater than 100 µM in the test with CCRF-CEM leukemia. The molecule also came in with a TGI in the test with PC-3 prostate of 57.3 µM.
`CC(O)c1cc2c(s1)C(=O)c1ccsc1C2=O` (stereo not drawn): the TGI in the test on MALME-3M melanoma was determined as 0.0449 µM; in the test on SK-MEL-5 melanoma it was 0.0198 µM; in the test with A549 NSCLC it was 0.373 µM; with KM12 colon, 1.2 µM; in the test on UACC-257 melanoma, 0.0688 µM; in the test with CAKI-1 renal it was 1.96 µM. Moreover, the TGI in the test on HOP-62 NSCLC is 0.283 µM; in the test with HL-60(TB) leukemia it was 0.0791 µM; in the test with NCI-H522 lung, 0.381 µM; in the test with NCI-H23 lung, 0.0304 µM; in the test with OVCAR-3 ovarian it was 0.169 µM; in the test on SF-268 CNS it was 0.679 µM. The TGI with M14 melanoma is 0.241 µM; with HOP-92 NSCLC, 0.967 µM; with HCC-2998 colon, 0.576 µM; with TK-10 renal, 1.32 µM; in the test with U251 CNS it was 0.415 µM; in the test on CCRF-CEM leukemia, 0.781 µM. In addition, in the test on PC-3 prostate, the TGI came to 0.158 µM.
`CSC1=Nc2ccccc2-c2nc3ccccc3cc2C1`: the TGI in the test with MALME-3M melanoma, with SK-MEL-5 melanoma, in the test with A549 NSCLC, with KM12 colon, in the test on UACC-257 melanoma and with CAKI-1 renal was greater than 100 µM in each case. The TGI in the test with HOP-62 NSCLC, in the test on HL-60(TB) leukemia, in the test with NCI-H522 lung, in the test with NCI-H23 lung, with OVCAR-3 ovarian and in the test with SF-268 CNS was greater than 100 µM throughout. Further, the TGI in the test with M14 melanoma, in the test on HOP-92 NSCLC, with HCC-2998 colon, in the test with TK-10 renal, in the test with U251 CNS and in the test on CCRF-CEM leukemia was greater than 100 µM in each case. Also, the TGI in the test with PC-3 prostate is greater than 100 µM.
